Read-outs that look alike come from different tables or passages of the source.
Columns and labels:
[1] = biological target: T1, Recombinant human PKC-theta (His-tagged 362-706) (Homo sapiens, UniProt Q04759); test: PKC-theta inhibition assay (HTRF KinEASE kit); format: biochemical; settings: ATP 6.5 μM, STK substrate 525 nM
T1 construct: Recombinant human PKC-theta (His-tagged 362-706); His
Procedure, shortened: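 IC50 values were from 4-parameter logistic fits of percent inhibition, based on acceptor/donor HTRF ratios over 10 semi-log compound doses. Kinase reactions, started with substrate plus ATP, ran 30 min at 25 °C in buffer supplemented with 10 mM MgCl2, 1 mM DTT and 0.1% Tween 20; detection lasted 2 h.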

[2] = biological target: T2, Recombinant human PKC-delta (His-tagged 345-676) (Homo sapiens, UniProt Q05655); test: PKC-delta inhibition assay (HTRF KinEASE kit); format: biochemical; settings: ratio, PKC-theta vs PKC-delta HTRF; for PKC-theta/PKC-delta selectivity (binned): binned A to G
T2 construct: PKC-delta (His-tagged 345-676); His
T2 sequence (Q05655 345-676): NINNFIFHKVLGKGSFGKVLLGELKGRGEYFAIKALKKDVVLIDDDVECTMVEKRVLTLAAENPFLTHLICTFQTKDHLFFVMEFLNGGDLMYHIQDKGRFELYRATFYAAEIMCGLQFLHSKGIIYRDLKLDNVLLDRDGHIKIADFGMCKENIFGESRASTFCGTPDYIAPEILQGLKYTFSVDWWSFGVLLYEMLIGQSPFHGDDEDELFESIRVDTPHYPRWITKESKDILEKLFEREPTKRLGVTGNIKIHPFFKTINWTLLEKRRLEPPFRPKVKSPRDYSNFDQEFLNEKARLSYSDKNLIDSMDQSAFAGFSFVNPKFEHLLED

[3] = tested on: IL-2 secretion by human effector memory T cells (TEM); test: Effector memory T cells IL-2 release assay (CD3/CD28 stimulation, HTRF IL-2 detection); format: cell-based; settings: Homo sapiens, T-cell, 24 h
Procedure, shortened: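 IL-2 released into the supernatant was quantified by HTRF after 24 h at 37 °C in 5% CO2. The cells were stimulated primary human TEM from donor buffy coats, treated with a 10-point semi-log compound series (0.1% DMSO final, triplicates).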

[4] = binned A to H, read-out: PKC-theta HTRF pIC50 (binned) (converted)
[5] = read-out: PKC-theta HTRF pIC50 (converted)
[6] = binned A to G, read-out: PKC-theta IL2 pIC50 (binned) (converted)
[7] = read-out: PKC-theta IL2 pIC50 (converted)

T1 sequence (Q04759 362-706): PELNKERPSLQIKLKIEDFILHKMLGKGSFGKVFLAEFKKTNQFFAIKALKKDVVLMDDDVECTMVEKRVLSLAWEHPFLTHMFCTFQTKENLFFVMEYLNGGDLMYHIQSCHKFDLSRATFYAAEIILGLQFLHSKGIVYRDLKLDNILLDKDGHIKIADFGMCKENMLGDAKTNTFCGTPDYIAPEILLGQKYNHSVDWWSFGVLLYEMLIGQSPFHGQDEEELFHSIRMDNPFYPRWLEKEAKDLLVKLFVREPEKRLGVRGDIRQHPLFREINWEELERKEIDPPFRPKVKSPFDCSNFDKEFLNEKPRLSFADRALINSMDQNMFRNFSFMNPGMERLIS

Row | SMILES | IC50 [1, 4] | IC50 [1, 5] | PKC-theta/PKC-delta selectivity [2] | PKC-theta/PKC-delta selectivity (binned) [2] | IC50 [3, 6] | IC50 [3, 7]
1 | CCC1(O)C(=O)Nc2nccc(-c3cc(Cl)cc(N4CCN[C@@H](C)C4)n3)c21 (stereo partly drawn) [Example 113] | 1 to 3.16 nM | 3.16 nM | 22 | C (a ratio of between 20 and 30) | 31.6 to 100 nM | 79.4 nM
2 | CC1(C)C(=O)Nc2nccc(-c3cccc(N4CCNCC4)n3)c21 [Example 38] | 3.16 to 10 nM | 10 nM | 4 | F (a ratio of between 1 and 5) | 100 to 316 nM | 158 nM
3 | CC1(C)C(=O)Nc2nccc(-c3cc(C(F)(F)F)cc(N4CCCNCC4)n3)c21 [Example 175] | 3.16 to 10 nM | 5.01 nM | 21 | C (a ratio of between 20 and 30) | 31.6 to 100 nM | 63.1 nM
4 | C[C@H]1CN(c2cc(Cl)cc(-c3ccnc4c3C(C)(O)C(=O)N4)n2)CCN1 (stereo partly drawn) [Example 208] | 1 to 3.16 nM | 2 nM | 12 | D (a ratio of between 10 and 20) | 10 to 31.6 nM | 20 nM
5 | CC1(C)C(=O)Nc2nccc(-c3cccc(N4CCNCC4)c3Cl)c21 [Example 48] | > 1000 nM | 1580 nM | 1 | G (a ratio of 0 to 1) | > 1000 nM | 10000 nM
6 | COC1(C)C(=O)Nc2nccc(-c3cc(F)cc(N4CCNCC4)c3)c21 (stereo not drawn) [Example 57] | 31.6 to 100 nM | 50.1 nM | 6 | E (a ratio of between 5 and 10) | 316 to 1000 nM | 631 nM
7 | CC1(O)C(=O)Nc2nccc(-c3cc(C(F)(F)F)cc(N4CCNCC4)n3)c21 (stereo not drawn) [Example 80] | 3.16 to 10 nM | 6.31 nM | 12 | D (a ratio of between 10 and 20) | 31.6 to 100 nM | 79.4 nM
8 | C[C@@H](O)[C@H]1CN(c2cc(C(F)(F)F)cc(-c3ccnc4c3C(C)(C)C(=O)N4)n2)CCN1 [Example 116] | 3.16 to 10 nM | 5.01 nM | 10 | D (a ratio of between 10 and 20) | 100 to 316 nM | 126 nM
9 | CC1C(=O)Nc2ncnc(-c3cccc(N4CCNCC4)c3)c21 (stereo not drawn) [Example 24] | 316 to 1000 nM | 1000 nM | 1 | F (a ratio of between 1 and 5) | > 1000 nM | 2000 nM
10 | CC1(O)C(=O)Nc2nccc(-c3cc(N4CCNCC4)cc(C(F)(F)F)c3)c21 (stereo not drawn) [Example 56] | 10 to 31.6 nM | 20 nM | 14 | D (a ratio of between 10 and 20) | 316 to 1000 nM | 794 nM
11 | CC[C@@]1(C)C(=O)Nc2nccc(-c3cc(Cl)cc(N4CCNC[C@H]4C)n3)c21 (single isomer, unassigned) [Example 164] | 1 to 3.16 nM | 2 nM | 5 | F (a ratio of between 1 and 5) | 10 to 31.6 nM | 12.6 nM
12 | CC[C@@]1(C)C(=O)Nc2nccc(-c3cc(C(C)(F)F)cc(N4CCN[C@@H](C)C4)n3)c21 (single isomer, unassigned) [Example 200] | 3.16 to 10 nM | 5.01 nM | 27 | C (a ratio of between 20 and 30) | 31.6 to 100 nM | 79.4 nM
13 | CC1(C)C(=O)Nc2nccc(-c3nc(N4CCNCC4)c(F)cc3Cl)c21 [Example 207] | 100 to 316 nM | 251 nM | 5 | F (a ratio of between 1 and 5) | > 1000 nM | 2000 nM
14 | CC[C@@]1(C)C(=O)Nc2nccc(-c3cc(C(C)(F)F)cc(N4CCCNCC4)n3)c21 (single isomer, unassigned) [Example 206] | 31.6 to 100 nM | 31.6 nM | 23 | C (a ratio of between 20 and 30) | 316 to 1000 nM | 631 nM
15 | C[C@@H]1CN(c2cc(C(C)(F)F)cc(-c3ccnc4c3C(C)(C)C(=O)N4)n2)CCCN1 [Example 204] | 3.16 to 10 nM | 6.31 nM | 24 | C (a ratio of between 20 and 30) | 100 to 316 nM | 126 nM
16 | O=c1[nH]c2nccc(-c3cccc(N4CCNCC4)c3)c2[nH]1 [Example 2] | 316 to 1000 nM | 501 nM | 2 | F (a ratio of between 1 and 5) | > 1000 nM | 10000 nM
17 | CC1(C)C(=O)Nc2nccc(-c3cc(C(F)F)cc(N4CCNCC4)n3)c21 [Example 87] | 3.16 to 10 nM | 6.31 nM | 10 | D (a ratio of between 10 and 20) | 100 to 316 nM | 100 nM
18 | CC[C@@H]1CN(c2cc(C(F)(F)F)cc(-c3ccnc4c3C(C)(O)C(=O)N4)n2)CCN1 (stereo partly drawn) [Example 72] | 10 to 31.6 nM | 25.1 nM | 12 | D (a ratio of between 10 and 20) | 100 to 316 nM | 316 nM
19 | CC1(C)C(=O)Nc2nccc(-c3cc(C(F)(F)F)cc(N4CC5CC(C4)N5)n3)c21 [Example 150] | 31.6 to 100 nM | 63.1 nM | 13 | D (a ratio of between 10 and 20) | > 1000 nM | 1260 nM
20 | C[C@H]1CNCCN1c1cc(C(F)(F)F)cc(-c2ccnc3c2[C@](C)(O)C(=O)N3)n1 (single isomer, unassigned) [Example 93] | 10 to 31.6 nM | 12.6 nM | 12 | D (a ratio of between 10 and 20) | 100 to 316 nM | 126 nM
21 | CC1(C)C(=O)Nc2nccc(-c3ccnc(N4CCNCC4)c3)c21 [Example 28] | > 1000 nM | 1260 nM | 1 | G (a ratio of 0 to 1) | > 1000 nM | 10000 nM
22 | CC1(C)C(=O)Nc2nccc(-c3cc(C(F)(F)F)cc(N4C[C@H]5CC[C@@H](C4)N5)n3)c21 [Example 135] | 10 to 31.6 nM | 20 nM | 13 | D (a ratio of between 10 and 20) | 100 to 316 nM | 316 nM
23 | C[C@@H]1CN(c2cc(C(F)(F)F)cc(-c3ccnc4c3[C@](C)(O)C(=O)N4)n2)[C@H](C)CN1 (single isomer, unassigned) [Example 119] | 3.16 to 10 nM | 3.98 nM | 12 | D (a ratio of between 10 and 20) | 100 to 316 nM | 200 nM
